Assay results published in US11111237B2, “Bicyclic compound and use thereof” (SK BIOPHARMACEUTICALS CO., LTD., priority 2019, dated 2021).

target: PRMT5-MEP50 enzyme complex (Homo sapiens (Human), UniProt O14744); test: PRMT5 enzyme activity in vitro assay (methylation of histone H4R3, ELISA absorbance at 450 nm); assay type: biochemical; details: SAM, histone H4 peptide, room temperature 2 hours, 8 points from 10 μM to 0.128 nM
In short: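 IC50 was derived from ELISA absorbance at 450 nm, using primary and HRP antibodies against H4R3 methylation on immobilised histone H4 peptide (residues 1-20). Compounds (10 μM to 0.128 nM, 8 points, 1:5) were incubated 2 h at room temperature with the PRMT5-MEP50 complex and SAM, diluted to 5 μg/mL and 2 μM respectively.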

Chain of PRMT5-MEP50 enzyme complex (O14744 2-637): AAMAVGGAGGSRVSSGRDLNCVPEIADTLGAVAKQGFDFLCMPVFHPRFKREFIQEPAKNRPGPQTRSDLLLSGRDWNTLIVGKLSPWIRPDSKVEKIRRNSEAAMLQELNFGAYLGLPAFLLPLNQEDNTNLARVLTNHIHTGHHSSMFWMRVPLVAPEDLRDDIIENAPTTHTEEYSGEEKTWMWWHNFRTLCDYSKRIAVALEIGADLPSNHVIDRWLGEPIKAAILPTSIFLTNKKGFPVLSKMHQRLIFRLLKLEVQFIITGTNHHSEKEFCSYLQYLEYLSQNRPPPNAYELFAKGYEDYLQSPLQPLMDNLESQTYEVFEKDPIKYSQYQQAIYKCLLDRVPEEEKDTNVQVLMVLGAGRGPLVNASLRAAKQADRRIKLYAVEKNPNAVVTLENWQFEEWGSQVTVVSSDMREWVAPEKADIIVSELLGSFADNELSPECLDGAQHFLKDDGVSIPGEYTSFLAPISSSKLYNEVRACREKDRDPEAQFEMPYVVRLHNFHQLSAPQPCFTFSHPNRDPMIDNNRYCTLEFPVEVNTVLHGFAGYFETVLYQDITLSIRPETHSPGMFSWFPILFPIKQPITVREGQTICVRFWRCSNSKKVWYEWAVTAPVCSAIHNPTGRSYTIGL
Chain of PRMT5-MEP50 enzyme complex (Q9BQA1 2-342 partner): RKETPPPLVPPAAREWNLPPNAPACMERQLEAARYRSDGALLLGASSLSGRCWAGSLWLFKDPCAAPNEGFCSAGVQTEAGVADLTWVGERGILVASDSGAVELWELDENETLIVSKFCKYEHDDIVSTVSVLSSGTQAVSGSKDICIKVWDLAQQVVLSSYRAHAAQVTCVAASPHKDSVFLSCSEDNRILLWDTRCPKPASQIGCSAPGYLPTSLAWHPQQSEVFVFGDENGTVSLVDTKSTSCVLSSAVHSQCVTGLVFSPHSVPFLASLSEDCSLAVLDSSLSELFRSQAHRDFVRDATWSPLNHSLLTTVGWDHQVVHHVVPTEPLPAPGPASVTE

Structure (SMILES)	IC50 [nM]
CCC(=O)N1CC(Oc2ccc3c(c2)OCCN(C[C@H](O)CN2CCc4ccccc4C2)C3=O)C1 [Example 84, 4-[(2R)-3-(3,4-dihydro-1H-isoquinolin-2-yl)-2-hydroxy-propyl]-8-(1-propanoylazetidin-3-yl)oxy-2,3-dihydro-1,4-benzoxazepin-5-one]	100 to 1000
CCN1CC(Oc2ccc3c(c2)OCCN(C[C@H](O)CN2CCc4ccccc4C2)C3=O)C1 [Example 94, 4-[(2R)-3-(3,4-dihydro-1H-isoquinolin-2-yl)-2-hydroxy-propyl]-8-(1-ethylazetidin-3-yl)oxy-2,3-dihydro-1,4-benzoxazepin-5-one]	100 to 1000
CC(=O)N1CCCC(Oc2ccc3c(c2)OCCN(C[C@H](O)CN2CCc4ccccc4C2)C3=O)C1 (stereo partly drawn) [Example 79, 8-[(1-acetyl-3-piperidyl)oxy]-4-[(2R)-3-(3,4-dihydro-1H-isoquinolin-2-yl)-2-hydroxy-propyl]-2,3-dihydro-1,4-benzoxazepin-5-one]	100 to 1000
O=C1c2ccc(CN3CCCC(F)C3)cc2OCCN1C[C@H](O)CN1CCc2ccccc2C1 (stereo partly drawn) [Example 43, 4-[(2R)-3-(3,4-dihydro-1H-isoquinolin-2-yl)-2-hydroxy-propyl]-8-[(3-fluoro-1-piperidyl)methyl]-2,3-dihydro-1,4-benzoxazepin-5-one]	1 to 100
CC(C)Cc1ccc2c(c1)OCCN(C[C@H](O)CN1CCc3ccccc3C1)C2=O [Example 12, 4-[(2R)-3-(3,4-dihydro-1H-isoquinolin-2-yl)-2-hydroxy-propyl]-8-isobutyl-2,3-dihydro-1,4-benzoxazepin-5-one]	1 to 100
CN1CCC(COc2ccc3c(c2)OCCN(C[C@H](O)CN2CCc4ccccc4C2)C3=O)CC1 [Example 102, 4-[(2R)-3-(3,4-dihydro-1H-isoquinolin-2-yl)-2-hydroxy-propyl]-8-[(1-methyl-4-piperidyl)methoxy]-2,3-dihydro-1,4-benzoxazepin-5-one]	100 to 1000
CC1CN(C[C@H](O)CN2CCc3ccccc3C2)C(=O)c2ccc(OC3CCN(C)CC3)cc2O1 (stereo partly drawn) [Example 141, 4-[(2R)-3-(3,4-dihydro-1H-isoquinolin-2-yl)-2-hydroxypropyl]-2-methyl-8-[(1-methyl-4-piperidyl)oxy]-2,3-dihydro-1,4-benzoxazepin-5-one]	1 to 100
O=C1c2ccc(OC(F)(F)F)cc2CCCN1CC(O)CN1CCc2ccccc2C1 (stereo not drawn) [Example 4, 2-[3-(3,4-dihydro-1H-isoquinolin-2-yl)-2-hydroxy-propyl]-7-(trifluoromethoxy)-4,5-dihydro-3H-2-benzazepin-1-one]	100 to 1000
O=C1c2ccc(OC3CCN(C4CCC4)CC3)cc2OCCN1C[C@H](O)CN1CCc2ccccc2C1 [Example 91, 8-[(1-cyclobutyl-4-piperidyl)oxy]-4-[(2R)-3-(3,4-dihydro-1H-isoquinolin-2-yl)-2-hydroxy-propyl]-2,3-dihydro-1,4-benzoxazepin-5-one]	100 to 1000
O=C1c2ccc(CCC(F)(F)F)cc2OCCN1C[C@H](O)CN1CCc2ccccc2C1 [Example 13, 4-[(2R)-3-(3,4-dihydro-1H-isoquinolin-2-yl)-2-hydroxy-propyl]-8-(3,3,3-trifluoropropyl)-2,3-dihydro-1,4-benzoxazepin-5-one]	1 to 100
CN1CCCC(Oc2ccc3c(c2)OCCN(C[C@H](O)CN2CCc4ccccc4C2)C3=O)C1 (stereo partly drawn) [Example 68, 4-[(2R)-3-(3,4-dihydro-1H-isoquinolin-2-yl)-2-hydroxy-propyl]-8-[(1-methyl-3-piperidyl)oxy]-2,3-dihydro-1,4-benzoxazepin-5-one]	100 to 1000
CCN1CC=C(c2ccc3c(c2)OCCN(C[C@H](O)CN2CCc4ccccc4C2)C3=O)CC1 [Example 18, 4-[(2R)-3-(3,4-dihydro-1H-isoquinolin-2-yl)-2-hydroxy-propyl]-8-(1-ethyl-3,6-dihydro-2H-pyridin-4-yl)-2,3-dihydro-1,4-benzoxazepin-5-one]	100 to 1000
CCN1CCOC(COc2ccc3c(c2)OCCN(C[C@H](O)CN2CCc4ccccc4C2)C3=O)C1 (stereo partly drawn) [Example 105, 4-[(2R)-3-(3,4-dihydro-1H-isoquinolin-2-yl)-2-hydroxy-propyl]-8-[(4-ethylmorpholin-2-yl)methoxy]-2,3-dihydro-1,4-benzoxazepin-5-one]	100 to 1000
O=C1c2ccc(CN3CCC[C@@H]3CO)cc2OCCN1C[C@H](O)CN1CCc2ccccc2C1 [Example 47, 4-[(2R)-3-(3,4-dihydro-1H-isoquinolin-2-yl)-2-hydroxy-propyl]-8-[[(2R)-2-(hydroxymethyl)pyrrolidin-1-yl]methyl]-2,3-dihydro-1,4-benzoxazepin-5-one]	100 to 1000
N#Cc1ccc2c(c1)CCCN(C[C@H](O)CN1CCc3ccccc3C1)C2=O [Example 9, 2-[(2R)-3-(3,4-dihydro-1H-isoquinolin-2-yl)-2-hydroxy-propyl]-1-oxo-4,5-dihydro-3H-2-benz azepin-7-carbonitrile]	100 to 1000
CN(C)CCOc1ccc2c(c1)OCCN(C[C@H](O)CN1CCc3ccccc3C1)C2=O [Example 72, 4-[(2R)-3-(3,4-dihydro-1H-isoquinolin-2-yl)-2-hydroxy-propyl]-8-[2-(dimethylamino)ethoxy]-2,3-dihydro-1,4-benzoxazepin-5-one]	100 to 1000

Other lines, results leading:

IC50 [nM]	Structure (SMILES)
1 to 100	O=C1c2ccc(Br)cc2CCCN1C[C@H](O)CN1CCc2ccccc2C1 [Example 155, 7-bromo-2-[(2R)-3-(3,4-dihydro-1H-isoquinolin-2-yl)-2-hydroxy-propyl]-4,5-dihydro-3H-2-benzazepin-1-one]
1 to 100	CN1CCN(C[C@H](O)CN2CCc3ccccc3C2)C(=O)c2ccc(C3=CCN(C(=O)OC(C)(C)C)CC3)cc21 [Example 120, tert-butyl 4-[4-[(2R)-3-(3,4-dihydro-1H-isoquinolin-2-yl)-2-hydroxy-propyl]-1-methyl-5-oxo-2,3-dihydro-1,4-benzodiazepin-8-yl]-3,6-dihydro-2H-pyridine-1-carboxylate]
100 to 1000	CC1CN(C(=O)c2ccc3c(c2)OCCN(C[C@H](O)CN2CCc4ccccc4C2)C3=O)CCO1 (stereo partly drawn) [Example 190, 4-[(2R)-3-(3,4-dihydro-1H-isoquinolin-2-yl)-2-hydroxy-propyl]-8-(2-methylmorpholin-4-carbonyl)-2,3-dihydro-1,4-benzoxazepin-5-one]
100 to 1000	CC(=O)N1CCC(Oc2ccc3c(c2)N(C)CCN(C[C@H](O)CN2CCc4ccccc4C2)C3=O)CC1 [Example 121, 8-[(1-acetyl-4-piperidyl)oxy]-4-[(2R)-3-(3,4-dihydro-1H-isoquinolin-2-yl)-2-hydroxy-propyl]-1-methyl-2,3-dihydro-1,4-benzodiazepin-5-one]
100 to 1000	N#CCN1CCC(Oc2ccc3c(c2)OCCN(C[C@H](O)CN2CCc4ccccc4C2)C3=O)CC1 [Example 159]
1 to 100	O=C1c2ccc(C#Cc3cccnc3)cc2OCCN1C[C@H](O)CN1CCc2ccccc2C1 [Example 227, 4-[(2R)-3-(3,4-dihydro-1H-isoquinolin-2-yl)-2-hydroxy-propyl]-8-[2-(3-pyridyl)ethynyl]-2,3-dihydro-1,4-benzoxazepin-5-one]
100 to 1000	CC(O)CN1CCC(Oc2ccc3c(c2)O[C@H](C)CN(C[C@H](O)CN2CCc4ccccc4C2)C3=O)CC1 (stereo partly drawn) [Example 245, (2R)-4-[(2R)-3-(3,4-dihydro-1H-isoquinolin-2-yl)-2-hydroxy-propyl]-8-[[1-(2-hydroxypropyl)-4-piperidyl]oxy]-2-methyl-2,3-dihydro-1,4-benzoxazepin-5-one]
100 to 1000	CNCC#Cc1ccc2c(c1)OCCN(C[C@H](O)CN1CCc3ccccc3C1)C2=O [Example 229, 4-[(2R)-3-(3,4-dihydro-1H-isoquinolin-2-yl)-2-hydroxy-propyl]-8-[3-(methylamino)pro-1-pynyl]-2,3-dihydro-1,4-benzoxazepin-5-one]
1 to 100	O=C1c2ccc(Cl)cc2CCCN1C[C@H](O)CN1CCc2ccccc2C1 [Example 154, 7-chloro-2-[(2R)-3-(3,4-dihydro-1H-isoquinolin-2-yl)-2-hydroxy-propyl]-4,5-dihydro-3H-2-benzazepin-1-one]
100 to 1000	C[C@H](O)CN1CCC(Oc2ccc3c(c2)O[C@H](C)CN(C[C@H](O)CN2CCc4ccccc4C2)C3=O)CC1 [Example 267, (2R)-4-[(2R)-3-(3,4-dihydro-1H-isoquinolin-2-yl)-2-hydroxy-propyl]-8-[[1-[(2S)-2-hydroxypropyl]-4-piperidyl]oxy]-2-methyl-2,3-dihydro-1,4-benzoxazepin-5-one]

system: SDMA levels in the tumor (U87MG tumor cells implanted subcutaneously); test: Test for in vivo target inhibitory activity (SDMA levels in U87MG tumor); details: U87MG tumor in nude mice, oral 25 or 50 mg/kg 1-2 times daily for one week
Description: Test for in vivo target inhibitory activity
After U87MG tumor cells were implanted subcutaneously in nude mice, a PRMT5 inhibitor was administered orally (25 or 50 mg/kg) 1-2 times daily for one week, and then the degree to which SDMA levels in the tumor decreased was measured.
Reagents: Bradford's solution (Catalog No. 500-0006) was purchased from Bio-rad (USA). SDMA antibody (Catalog No. 13222s) was purchased from Cell Signaling Technology (USA). SmD3 antibody (Catalog No. ap12451a) was purchased from Abgent (USA), and secondary antibody (Catalog No. ab6721) and TMB substrate (Catalog No. ab210902) were purchased from Abcam (UK).
Experimental procedure: The tumor tissues transplanted into the mice were excised, the cells were lysed, and then quantified with Bradford's solution. 5-10 μg of protein per sample was diluted with carbonate-bicarbonate buffer and dispensed into a 96-well plate and reacted at room temperature for 2 hours. After washing with phosphate buffered saline (PBST) containing 0.05% Tween-20 3 times, 200 μL of PBST containing 5% bovine serum albumin (BSA-PBST) was added and reacted at room temperature for 2 hours. After washing with PBST 3 times, the SDMA antibody and the SmD3 antibody were diluted in BSA-PBST, and 100 μL of each was dispensed onto the plate and reacted at 4° C. overnight. After washing with PBST 3 times the next day, 100 μL of the secondary antibody diluted in BSA-PBST was added and reacted at room temperature for 1 hour. After washing with PBST 3 times, 100 μL of TMB substrate was added and reacted at room temperature for 10-20 minutes, and 100 μL of 1N sulfuric acid solution was added to terminate the reaction. Then, the absorbance at 450 nm was measured to calculate the degree of SDMA inhibition by the compound. (+++: more than 70%, ++: more than 30% and 70% or less, +: 30% or less)

Structure (SMILES)	SDMA inhibition (%)
O=C1c2ccc(Br)cc2CCCN1C[C@H](O)CN1CCc2ccccc2C1 [Example 155, 7-bromo-2-[(2R)-3-(3,4-dihydro-1H-isoquinolin-2-yl)-2-hydroxy-propyl]-4,5-dihydro-3H-2-benzazepin-1-one]	+ (+: 30% or less)
